From US20130196935A1, “SYNTHETIC GLYCOAMINE COMPOUNDS” (ANIMAL CELL THERAPIES INC., priority 2012, published 2013)
Several values for one entry are separate records, joined by “and”; a condition that tells them apart may be missing. Equal entries are not always repeated.

Key:
[1] = MTS cytotoxicity assay on SVR cells; type: cell-based; conditions: mouse, SVR cells, 48 hours, MTS, read-out: Viability of SVR cells compared to control, Ave (%)
Method: (§1) 1. Testing concentrations of ACT-1 and ACT-2: 8 mM, 4 mM, 2 mM, 1 mM, 0.5 mM, 0.25 mM and 0.125 mM. 2. Trypsinized exponentially growing BAECs (P1) and SVR cells (P4), and prepared 5×10^4 cells/mL cell solution for BAECs and […] for SVR cells. Add 100 μl of cell solution to 96-well plates to achieve 5,000 cells/well for BAECs and 1,000 cells/well for SVR cells. Incubated cells at 37° C. overnight. 3. Prepared 8 mM=3.64 mg/mL and 8 mM ACT-2=3.62 mg/mL in BAEC complete culture medium. Sterilized the drug solutions by filtering through 0.2 μm syringe filters. 4. Prepared 2× serial dilutions from 8 mM stock solution by mixing 0.6 mL drug solution with 0.6 mL culture medium. 5. Aspirated medium from wells and added 80 μl of test article solutions to the wells according to the layout below.
(§2) 6. Incubated cells at 37° C. for 48 hours. 7. Aspirated the medium from wells and added fresh 70 μl culture medium to the wells. 8. Prepared MTS reagent (Promega CellTiter 96 Aqueous MTS assay reagents, Cat #G5421) by mixing 2.4 mL MTS, 120 μl PMS and 3.779 mL culture medium. Added 50 μl MTS assay reagent to the wells using a multiple channel pipette. 9. Incubate at 37° C. for 2 hours. Read absorbance at 490 nm using a plate reader.

SVR cells [2] = assay: MTS cytotoxicity assay on SVR cells; type: cell-based; conditions: for significance level P, cytotoxic effect on SVR cells compared to the control: 8 mM, two-tailed t-test; for cytotoxic effect on SVR cells: only at 8 mM, 48 hours, MTS
Method: as §1, §2

[3] = MTS cytotoxicity assay on primary BAEC; type: cell-based, bovine; conditions: bovine, primary bovine aortic endothelial cells (BAEC), read-out: Viability of BAEC cells compared to control, Ave (%)
Method: as §1, §2

[4] = system: primary bovine aortic endothelial cells (BAEC); assay: MTS cytotoxicity assay on primary BAEC; type: cell-based; conditions: 0.125-8 mM, 48 hours
Method: as §1, §2

SVR cells [5] = assay: TUNEL assay, apoptosis induction of SVR cells; type: cell-based; conditions: 2 mM, 24 hours
Method: 1. Testing concentrations of ACT-1 and ACT-2: 2 mM. 2. Prepared 4 mM ACT-1=1.82 mg/mL and 4 mM ACT-2=1.81 mg/mL in complete culture medium. Sterilized the drug solutions by filtering through 0.2 μm syringe filters. 3. Added 100 μl of test articles or culture medium to 4 wells for each ACT-1 and ACT-2 in a 96-well plate. Added 100 μl of culture medium to 5 wells (for non-treated and DNase treatment controls). 4. Trypsinized SVR cells (P3) and prepared 5×10^3 cells/mL solution in culture medium. Added 100 μl of cell solution to each well (500 cells/well). Mixed well by gentle pipetting. 5. Incubated at 37° C. for 24 hours. 6. Removed medium and added 100 μl of 4% PFA in PBS to the wells. Incubated at room temperature for 15 min. 7. Removed PFA solution and 100 μl of permeabilization reagent (0.25% Triton X-100 in PBS) (Triton X-100: Sigma Cat #: T8787-100ML). Incubated at room temperature for 20 min. Washed twice with deionized water. 8. TUNEL reaction was then carried out exactly as the protocol provided by the kit (Invitrogen Click-iT TUNEL Alexa Fluor Imaging Assay Kit, Cat #: C10245). Treated one well (culture medium control) with DNase as positive control for the TUNEL reaction. The reaction volume for each well was 50 μl. 9. After TdT and Click-iT reactions, DNA was stained with Hoechst 33342 (provided by the kit) 1:5,000 in PBS at RT for 15 min. Washed wells three times with PBS. 10. […]

SVR cells [6] = assay: Clonogenic survival (colony formation) of SVR cells; type: cell-based; conditions: for Colony # (single well): 200 SVR cells per well; for Colony # Average: average of 4 wells; for inhibition of colony formation compared to the control: two-tailed t-test; for inhibition of SVR cell colony formation: concentrations 1 mM and higher, compared to control
Method: 1. Testing concentrations of ACT-1 and ACT-2: 1 mM, 500 μM, 250 μM, 125 μM, and 62.5 μM. 2. Prepared 2 mM ACT-1=0.91 mg/mL and 2 mM ACT-2=0.91 mg/mL in SVR complete culture medium. Sterilized the test article solutions by filtering through 0.2 μm syringe filters (Whatman Puradisc 25 mm, Cat #6780-2502). 3. Prepared solutions in 2× testing concentrations (2 mM, 1 mM, 500 μM, 250 μM, 125 μM and 62.5 μM) by preparing 2× dilution from 2 mM stock solution (mixing 2.4 mL culture medium with 2.4 mL of 2 mM solution, and make serial 2× dilutions the same way). 4. Pipetted 0.5 mL of test articles to 24-well plates according to the layout below (ACT-1 in one plate and ACT-2 in another plate). Each concentration will be tested in quadruplicate.
5. Trypsinized SVR cells (P1) and prepared 400 cells/mL solution in culture medium. Pipetted 0.5 mL cell solution to each well (200 cells/well). Mixed well by gentle pipetting. 6. Cultured cells at 37° C. incubator for 6 days. 7. Aspirated medium from the wells. Rinsed cells once with 1 mL of PBS (LONZA, Cat #: 17-516Q). 8. Fixed cells with 0.5 mL of freshly prepared 4% paraformaldehyde (PFA) (1:8 dilution of 32% PFA solution in PBS; 32% PFA solution: Electron Microscopy Sciences Cat #:15714) in PBS at RT for 20 min. Removed PFA and washed cells once with 1 mL PBS. 9. Stained cells with 0.3 mL of Mayer's hematoxylin solution (Sigma Cat#: MHS1-100ML) at RT for 15 min. Removed hematoxylin solution and rinsed cells twice with 1 mL of warm tap water. 10. Counted cell colonies under microscope with 40× magnification (divide the wells with makers into 4 sections. Count the numbers of colonies from each section and add the numbers to yield the final colony numbers).
1. Testing concentrations of ACT-1 and ACT-2: 4 mM, 2 mM, 1 mM, and 0.5 mM. 2. The experimental procedures were the same as in Experiment 1-1, except that the total volume in each well was 0.6 mL (0.3 mL of 2× concentrated test articles and 0.3 mL of 667 cells/mL cell solution).
3. Cultured cells at 37° C. incubator for 6 days. 4. Visualized the cell colonies by staining with hematoxylin as described above. 5. Counted the colonies under microscope.

[7] = Experiment A, 62.5 μM, six days after treatment
[8] = Experiment A, 62.5 μM, six days
[9] = Experiment A, 125 μM, six days after treatment
[10] = Experiment A, 250 μM, six days after treatment
[11] = Experiment A, 500 μM, six days after treatment
[12] = Experiment A, 1000 μM, six days after treatment
[13] = Experiment A, 1000 μM, six days
[14] = Experiment B (higher concentrations), 0.5 mM, six days
[15] = Experiment B (higher concentrations), 1 mM, six days
[16] = Experiment B (higher concentrations), 2 mM, six days
[17] = Experiment B (higher concentrations), 4 mM, six days

Compound: O=C(O)[C@H](CC1CC1)NC[C@@]1(O)OC[C@@H](O)[C@@H](O[C@@H]2O[C@H](CO)[C@H](O)[C@H](O)[C@H]2O)[C@@H]1O [ACT-2]
- viability at 48 h, 0.125 mM [1]: 98.2%
- viability at 48 h, 0.25 mM [1]: 105%
- viability at 48 h, 0.5 mM [1]: 98.7%
- viability at 48 h, 1 mM [1]: 92.5%
- viability at 48 h, 2 mM [1]: 95.1%
- viability at 48 h, 4 mM [1]: 87.8%
- viability at 48 h, 8 mM [1]: 76.1%
- significance level P, cytotoxic effect on SVR cells compared to the control (SVR cells [2]): 0.018
- cytotoxic effect on SVR cells (SVR cells [2]): significant cytotoxic effect
- viability at 48 h, 0.125 mM [3]: 107%
- viability at 48 h, 0.25 mM [3]: 133%
- viability at 48 h, 0.5 mM [3]: 136%
- viability at 48 h, 1 mM [3]: 132%
- viability at 48 h, 2 mM [3]: 133%
- viability at 48 h, 4 mM [3]: 118%
- viability at 48 h, 8 mM [3]: 106%
- cytotoxic effect on primary BAECs [4]: did not show significant cytotoxic effect
- TUNEL nuclear staining (apoptosis induction) (SVR cells [5]): nuclear staining was not observed
- Colony # (single well) (SVR cells [6]; [7]): 49 and 51 and 43 and 48
- Colony # Average (SVR cells [6]; [8]): 47.8
- Colony # (single well) (SVR cells [6]; [9]): 44 and 42 and 39
- Colony # Average (SVR cells [6]; Experiment A, 125 μM, six days): 41.8
- Colony # (single well) (SVR cells [6]; [10]): 50 and 44 and 39 and 37
- Colony # Average (SVR cells [6]; Experiment A, 250 μM, six days): 42.5
- Colony # (single well) (SVR cells [6]; [11]): 39 and 31 and 33 and 35
- Colony # Average (SVR cells [6]; Experiment A, 500 μM, six days): 34.5
- inhibition of colony formation compared to the control (SVR cells [6]; Experiment A, 0.5 mM): significant inhibition of colony formation
- Colony # (single well) (SVR cells [6]; [12]): 33 and 36 and 39 and 28
- Colony # Average (SVR cells [6]; [13]): 34.0
- Colony # (single well) (SVR cells [6]; [14]): 38 and 34 and 40 and 31
- Colony # (single well) (SVR cells [6]; [15]): 13 and 23 and 19 and 16
- Colony # (single well) (SVR cells [6]; [16]): 0
- Colony # (single well) (SVR cells [6]; [17]): 0
- Colony # Average (SVR cells [6]; Experiment B, 0.5 mM, six days): 35.8
- Colony # Average (SVR cells [6]; Experiment B, 1 mM, six days): 17.8
- Colony # Average (SVR cells [6]; Experiment B, 2 mM, six days): 0.0
- Colony # Average (SVR cells [6]; Experiment B, 4 mM, six days): 0.0
- inhibition of SVR cell colony formation (SVR cells [6]; Experiment B): inhibited SVR cell colony formation

Compound: CC(C)CC(NC[C@@]1(O)OC[C@@H](O)[C@@H](O[C@@H]2O[C@H](CO)[C@H](O)[C@H](O)[C@H]2O)[C@@H]1O)C(=O)O (stereo in doubt) [ACT-1]
- viability at 48 h, 0.125 mM [1]: 97.4%
- viability at 48 h, 0.25 mM [1]: 99.7%
- viability at 48 h, 0.5 mM [1]: 100%
- viability at 48 h, 1 mM [1]: 97.7%
- viability at 48 h, 2 mM [1]: 95.8%
- viability at 48 h, 4 mM [1]: 93.1%
- viability at 48 h, 8 mM [1]: 71.2%
- significance level P, cytotoxic effect on SVR cells compared to the control (SVR cells [2]): 0.016
- cytotoxic effect on SVR cells (SVR cells [2]): significant cytotoxic effect
- viability at 48 h, 0.125 mM [3]: 104%
- viability at 48 h, 0.25 mM [3]: 112%
- viability at 48 h, 0.5 mM [3]: 118%
- viability at 48 h, 1 mM [3]: 126%
- viability at 48 h, 2 mM [3]: 122%
- viability at 48 h, 4 mM [3]: 112%
- viability at 48 h, 8 mM [3]: 99.4%
- cytotoxic effect on primary BAECs [4]: did not show significant cytotoxic effect
- TUNEL nuclear staining (apoptosis induction) (SVR cells [5]): nuclear staining was not observed
- Colony # (single well) (SVR cells [6]; [7]): 43 and 42 and 41 and 39
- Colony # Average (SVR cells [6]; [8]): 41.3
- Colony # (single well) (SVR cells [6]; [9]): 44 and 41 and 39
- Colony # Average (SVR cells [6]; Experiment A, 125 μM, six days): 40.8
- Colony # (single well) (SVR cells [6]; [10]): 43 and 40 and 41 and 34
- Colony # Average (SVR cells [6]; Experiment A, 250 μM, six days): 39.5
- Colony # (single well) (SVR cells [6]; [11]): 42 and 41 and 33
- Colony # Average (SVR cells [6]; Experiment A, 500 μM, six days): 39.3
- Colony # (single well) (SVR cells [6]; [12]): 34 and 32
- Colony # Average (SVR cells [6]; [13]): 33.0
- inhibition of colony formation compared to the control (SVR cells [6]; Experiment A, 1 mM): significant inhibition of colony formation
- Colony # (single well) (SVR cells [6]; [14]): 40 and 45 and 35
- Colony # (single well) (SVR cells [6]; [15]): 38 and 32 and 33 and 34
- Colony # (single well) (SVR cells [6]; [16]): 1 and 2
- Colony # (single well) (SVR cells [6]; [17]): 0
- Colony # Average (SVR cells [6]; Experiment B, 0.5 mM, six days): 40.0
- Colony # Average (SVR cells [6]; Experiment B, 1 mM, six days): 34.3
- Colony # Average (SVR cells [6]; Experiment B, 2 mM, six days): 1.8
- Colony # Average (SVR cells [6]; Experiment B, 4 mM, six days): 0.0
- inhibition of SVR cell colony formation (SVR cells [6]; Experiment B): inhibited SVR cell colony formation
